In patent publication US20030065039A1, “Biologically active 1,3-bis-aromatic-prop-2-en-1-ones, 1,3-bis-aromatic-propan-1-ones, and 1,3-bis-aromatic-prop-2-yn-1-ones” (Statens Serum Institute, priority 1997, published 2003):
Where two headings read alike, the source gives them in different places.

Legend:
Format in all cases: cell-based
[1] = test system: Leishmania promastigotes; assay: Leishmania promastigotes Assay; details: read-out: Leishmania IC50 ± SD
Description: A WHO reference vaccine strain of L. major originally isolated from a patient in Iran and a Kenyan strain of L. donovani (MHOM(/KE/85/NLB 274) were cultured in medium 199 containing 0.02 mg/ml gentamycin, 25 mM Hepes, 4 mM L-glutamine, and 20% heat inactivated fetal calf serum (FCS). Incubation was carried out at 26° C. Promastigotes were harvested on day 3 and 6 of the culture and used for the parasite growth inhibition.
The effect of the test compounds on promastigotes was assessed by a method similar to the one described by Pearson et al., by incubating promastigotes (3×10^6/ml) at 26° C. for 2 hrs in the presence of a given compound or the medium alone in 96 wells flat bottom microtiter plates. Following incubation, 100 μCi of 3H-thymidine was added to each well and further incubated for 18 hrs. Promastigotes were then harvested on filter paper by means of a cell harvester, extensively washed with distilled water and counted in a scintillation counter. The promastigotes were also counted microscopically and their flagellar motility was assessed.

[2] = test system: human lymphocytes; assay: Lymphocyte Proliferation Assay; details: read-out: Lymphocytes IC50 ± SD
Description: Human blood mononuclear cells (BMNC) from heparinized blood were isolated by metrizoate sodium-Ficoll density gradient centrifugation, washed 3 times in RPMI 1640 medium supplemented with 5% FCS and with 400 IU of penicillin plus 400 μg/ml streptomycin. BMNC were resuspended in the medium and cultured in triplicate, 0.63×10^5/ml and 160 μl per vial, in round-bottom microtiter plates with 20 μl of various concentrations of the test compound. Immediately prior to incubation, optimum concentrations of the mitogen phytohaemagglutinin (PHA) and the antigen purified protein derivative of tuberculin (PPD) were added to the cultures in a volume of 20 μl. Unstimulated control cultures were always included. Cultures were incubated for 3 or 7 days. The degree of lymphocyte proliferation was estimated by ^3H-thymidine (1 μCi per well) addition 24 h before the cells were harvested on glass fiber filters by means of a harvesting machine), and ^3H-thymidine incorporation was measured in a liquid scintillation counter. For each set of triplicate values, the median was recorded. Unstimulated cultures were always included as controls.

[3] = test system: Plasmodium falciparum; assay: Plasmodium falciparum Assay; details: 3-H-hypoxanthine incorporation, 48 hours, read-out: Plasmodium IC50 ± SD
Description: The experiments in which compounds were tested for their ability to inhibit parasite growth were performed by a modification of the method originally described by Jensen et al. (1982). 50 μl of parasitized erythrocytes (parasitemia approximately 1%) in a concentration of 5×10^8/ml and 50 μl of RPMI medium containing different concentrations of the test compound was added to each well of a 96 well flat-bottomed microtiter plate. The cultures were then incubated for 48 hours, 24 hours before termination of the culture adding 20 μl of 3-H-hypoxanthine (40 uCi/ml) was added to each well. The cultures were then harvested onto glass fiber filters using a Skatron cell harvester, and the incorporation of 3-H-hypoxanthine into the DNA of dividing parasites was determined by liquid scintillation spectrometry. Control cultures with uninfected erythrocytes and infected erythrocytes in RPMI medium without test compounds were always performed in parallel to the test cultures. In some experiments thin smears of parasite cultures were stained by Giemsa and examined under microscope (×1000). The test compounds described above, were diluted in RPMI medium immediately before use. In the experiments, chloroquine phosphate was used as a positive control as a drug known to inhibit parasite growth.

[4] = Leishmania, promastigotes, 3H-thymidine uptake
[5] = Lymphocyte, PHA provoked proliferation of human lymphocytes
[6] = promastigotes, 3H-thymidine uptake
[7] = PHA provoked proliferation of human lymphocytes

COc1cccc(/C=C/C(=O)c2ccc(O)cc2)c1OC [2,3-OCH3-4′-OH, 2,3-dimethoxy-4′-hydroxychalcone]
IC50 [1, 4]: 89 ± 9 µM | IC50 [2, 5]: 70 ± 4 µM | IC50 ([3]; Plasmodium falciparum): 25 µM

C=CCOc1ccc(C(=O)/C=C/c2cccc(OC)c2OC)cc1 [2,3-OCH3-4′-allyloxy]
IC50 [1, 6]: 49 ± 3 µM | IC50 [2, 7]: 96 ± 6 µM | IC50 [3]: 26 µM

COc1ccc(/C=C/C(=O)c2ccccc2OC)c(OC)c1 [2,4,2′-OCH3]
IC50 [1, 6]: 16 ± 1 µM | IC50 [2, 7]: 26 ± 2 µM

COc1cc(OC)c(OC)cc1/C=C/C(=O)c1ccc(O)cc1 [2,4,5,-OCH3-4′-OH]
IC50 [1, 6]: 16 ± 2 µM | IC50 [2, 7]: 28 ± 2 µM | IC50 [3]: 13 µM

COc1cc(OC)c(/C=C/C(=O)c2ccc(O)cc2)c(OC)c1 [2,4,6-OCH3-4′-OH]
IC50 [1, 6]: 106 ± 8 µM | IC50 [2, 7]: 44 ± 2 µM

COc1ccc(/C=C/C(=O)c2ccccc2O)c(OC)c1 [2,4-OCH3-2′-OH]
IC50 [1, 6]: 35 ± 2 µM | IC50 [2, 7]: 144 ± 9 µM | IC50 [3]: 28 µM

C=CCOc1ccccc1C(=O)/C=C/c1ccc(OC)cc1OC [2,4-OCH3-2′-allyloxy]
IC50 [1, 6]: 5 ± 0.7 µM

CCCCOc1ccc(C(=O)/C=C/c2ccc(OC)cc2OC)cc1 [2,4-OCH3-4′-OC4H9, 2,4-dimethoxy-4′-butoxychalcone]
IC50 [1, 4]: 95 ± 10 µM

CCCCCCOc1ccc(C(=O)/C=C/c2ccc(OC)cc2OC)cc1 [2,4-OCH3-4′-OC6H13]
IC50 [1, 6]: 136 ± 15 µM | IC50 [3]: 14 µM

COc1ccc(/C=C/C(=O)c2ccccc2)c(OC)c1 [2,4-OCH3]
IC50 [1, 6]: 15 µM | IC50 [2, 7]: 48 ± 2 µM | IC50 [3]: 34 µM

C=CCOc1ccc(C(=O)/C=C/c2cc(OCC=C)ccc2OCC=C)cc1 [2,5,4′-allyloxy]
IC50 [1, 6]: 38 ± 2 µM | IC50 [2, 7]: 61 ± 3 µM

COc1ccc(OC)c(/C=C/C(=O)c2ccc(O)cc2)c1 [2,5-OCH3-4′-OH, 2,5-dimethoxy-4′hydroxychalcone]
IC50 [1, 4]: 23 ± 2 µM | IC50 [2, 5]: 22 ± 1 µM

C=CCOc1ccc(C(=O)/C=C/c2cc(OC)ccc2OC)cc1 [2,5-OCH3-4′-allyloxy]
IC50 [1, 6]: 73 ± 4 µM | IC50 [2, 7]: 55 ± 2 µM | IC50 [3]: 23 µM

CCCCOc1ccc(C(=O)/C=C/c2c(OC)cccc2OC)cc1 [2,6-OCH3-4′-OC4H9, 2,6-dimethoxy-4′-butoxychalcone]
IC50 [1, 4]: 104 ± 9 µM | IC50 [2, 5]: 127 ± 10 µM | IC50 ([3]; Plasmodium falciparum): 14 µM

COc1cccc(OC)c1/C=C/C(=O)c1ccc(O)cc1 [2,6-OCH3-4′-OH]
IC50 [1, 6]: 82 ± 8 µM | IC50 [2, 7]: 60 ± 2 µM

C=CCOc1ccc(C(=O)/C=C/c2c(OC)cccc2OC)cc1 [2,6-OCH3-4′-allyloxy]
IC50 [1, 6]: 81 ± 7 µM | IC50 [2, 7]: 96 ± 8 µM

COc1c(/C=C/C(=O)c2ccc(O)cc2)ccc(O)c1C [2-OCH3-3-methyl-4,4′-OH, 2-methoxy-3-methyl-4,4′-dihydroxychalcone]
IC50 [1, 4]: 22 ± 3 µM | IC50 [2, 5]: 27 ± 4 µM | IC50 ([3]; Plasmodium falciparum): 33 µM

COc1cc(O)ccc1/C=C/C(=O)c1ccc(O)cc1 [2-OCH3-4,4′-OH, 2-methoxy-4,4′-dihydroxychalcone]
IC50 [1, 4]: 68 ± 4 µM | IC50 [2, 5]: 94 ± 4 µM | IC50 ([3]; Plasmodium falciparum): 19 µM

CCCCCCc1cc(/C=C/C(=O)c2ccc(O)cc2)c(OC)cc1O [2-OCH3-4,4′-OH-5-hexyl, 2-methoxy-4,4′-dihydroxy-5-hexylchalcone]
IC50 [1, 4]: 9.7 ± 0.9 µM | IC50 [2, 5]: 46 ± 3 µM | IC50 ([3]; Plasmodium falciparum): 5.1 µM

CCCc1cc(/C=C/C(=O)c2ccc(O)cc2)c(OC)cc1O [2-OCH3-4,4′-OH-5-propyl, 2-methoxy-4,4′-dihydroxy-5-propylchalcone]
IC50 [1, 4]: 26 ± 2 µM | IC50 [2, 5]: 41 ± 3 µM | IC50 ([3]; Plasmodium falciparum): 10 µM

COc1cc(O)cc(C)c1/C=C/C(=O)c1ccc(O)cc1 [2-OCH3-4,4′-OH-6-methyl, 2-methoxy-4,4′-dihydroxy-6-methylchalcone]
IC50 [1, 4]: 39 ± 5 µM | IC50 [2, 5]: 53 ± 6 µM | IC50 ([3]; Plasmodium falciparum): 28 µM

COc1cc(O)ccc1/C=C/C(=O)c1ccc(N(C)C)cc1 [2-OCH3-4-OH-4′-N(CH3)2]
IC50 [1, 6]: 49 ± 4 µM | IC50 [2, 7]: 111 ± 7 µM | IC50 [3]: 23 µM

COc1ccc(C(=O)/C=C/c2ccc(Cl)cc2Cl)c(OC)c1OC [2′,3′,4′-OCH3-2,4-Cl]
IC50 [1, 6]: 6.3 ± 0.6 µM | IC50 [2, 7]: 7.8 ± 0.9 µM | IC50 [3]: 7.9 µM

O=C(/C=C/c1ccc(O)c(O)c1)c1ccc(O)cc1O [2′,4′,3,4-OH]
IC50 [1, 6]: 66 ± 2 µM | IC50 [2, 7]: 16 ± 1 µM | IC50 [3]: 49 µM

COc1cc(/C=C/C(=O)c2ccc(O)cc2O)ccc1O [2′,4′,4-OH-3-OCH3]
IC50 [1, 6]: 16 ± 2 µM | IC50 [2, 7]: 31 ± 2 µM | IC50 [3]: 43 µM

COc1ccc(/C=C/C(=O)c2ccc(F)cc2F)c(OC)c1 [2′,4′-F-2,4-OCH3]
IC50 [1, 6]: 26 ± 2 µM | IC50 [2, 7]: 74 ± 4 µM | IC50 [3]: 49 µM

COc1ccc(C(=O)/C=C/c2ccc(F)c(F)c2)c(OC)c1 [2′,4′-OCH3-3,4-F]
IC50 [1, 6]: 16 ± 1 µM | IC50 [2, 7]: 5.3 ± 0.6 µM | IC50 [3]: 10 µM

COc1ccc(OC)c(C(=O)/C=C/c2ccc(Cl)cc2Cl)c1 [2′,5′-OCH3-2,4-Cl]
IC50 [1, 6]: 7.8 ± 0.7 µM | IC50 [2, 7]: 5.7 ± 0.5 µM

COc1ccc(/C=C/C(=O)c2ccccc2Br)c(OC)c1 [2′-Br-2,4-OCH3, 2,4-dimethoxy-2′-bromochalcone]
IC50 [1, 4]: 14 ± 2 µM | IC50 [2, 5]: 35 ± 3 µM | IC50 ([3]; Plasmodium falciparum): 26 µM

C=CCOc1ccc(C(=O)/C=C/c2cc(OC)c(OC)c(OC)c2)cc1 [3,4,5-OCH3-4′-allyloxy]
IC50 [1, 6]: 41 ± 4 µM | IC50 [2, 7]: 30 ± 1 µM

CCCCOc1ccc(C(=O)/C=C/c2cc(OC)cc(OC)c2)cc1 [3,5-OCH3-4′-OC4H9]
IC50 [1, 6]: 35 ± 3 µM | IC50 [2, 7]: 52 ± 3 µM | IC50 [3]: 17 µM

COc1cc(/C=C/C(=O)c2ccc(O)cc2)cc(OC)c1 [3,5-OCH3-4′-OH]
IC50 [1, 6]: 12 ± 1 µM | IC50 [2, 7]: 14 ± 1 µM | IC50 [3]: 25 µM

COc1ccc(C(=O)/C=C/c2cccc(F)c2)c(OC)c1OC [3-F-2′,3′,4′-OCH3, 3-fluoro-2′,3′,4′-trimethoxychalcone]
IC50 [1, 4]: 9.7 ± 0.9 µM | IC50 [2, 5]: 6.4 ± 0.4 µM | IC50 ([3]; Plasmodium falciparum): 29 µM

COc1ccc(C(=O)/C=C/c2cccc(Oc3ccccc3)c2)c(OC)c1OC [3-OC6H5-2′,3′,4′-OCH3, 3-phenoxy-2′,3′,4′-trimethoxychalcone]
IC50 [1, 4]: 8.7 ± 0.5 µM | IC50 [2, 5]: 17 ± 1 µM | IC50 ([3]; Plasmodium falciparum): 8.9 µM

COc1ccc(/C=C/C(=O)c2cccc(Br)c2)c(OC)c1 [3′-Br-2,4-OCH3]
IC50 [1, 6]: 16 ± 1 µM | IC50 [2, 7]: 37 ± 2 µM | IC50 [3]: 17 µM

C=CCOc1ccc(C(=O)/C=C/c2cc(OC)c(CCCC)c(OC)c2)cc1 [4-C4H9-3,5-OCH3-4′-allyloxy, 4-butyl-3,5-dimethoxy-4′-(2-propenyloxy)chalcone]
IC50 [1, 4]: 90 ± 14 µM

C=CCOc1ccc(C(=O)/C=C/c2cc(OC)c(CCCCCC)c(OC)c2)cc1 [4-C6H13-3,5-OCH3-4′-allyloxy, 4-hexyl-3,5-dimethoxy-4′-(2-propenyloxy)chalcone]
IC50 [1, 4]: 19 ± 4 µM | IC50 [2, 5]: 15 ± 1 µM | IC50 ([3]; Plasmodium falciparum): 11 µM

COc1ccc(C(=O)/C=C/c2ccc(N(C)C)cc2)c(OC)c1OC [4-N(CH3)2-2′,3′,4′-OCH3, 4-dimethylamino-2′,3′,4′-trimethoxychalcone]
IC50 [1, 4]: 21 ± 2 µM | IC50 [2, 5]: 35 ± 2 µM | IC50 ([3]; Plasmodium falciparum): 22 µM

CN(C)c1ccc(/C=C/C(=O)c2ccc(O)cc2)cc1 [4-N(CH3)2-4′-OH]
IC50 [1, 6]: 79 ± 6 µM | IC50 [2, 7]: 130 ± 13 µM

O=C(/C=C/c1ccc(F)cc1)c1ccc(F)cc1 [4′,4-F, 4,4′-difluorochalcone]
IC50 [1, 4]: 15 ± 2 µM | IC50 [2, 5]: 22 ± 1 µM | IC50 ([3]; Plasmodium falciparum): 43 µM

O=C(/C=C/c1ccc([N+](=O)[O-])cc1)c1ccc([N+](=O)[O-])cc1 [4′,4-NO2, 4,4′-dinitro-chalcone]
IC50 ([1]; Leishmania): 26 ± 4 µM | IC50 ([2]; Homo sapiens, Lymphocyte): 51 ± 3 µM

CN(C)c1ccc(C(=O)/C=C/c2ccc([N+](=O)[O-])cc2)cc1 [4′-N(CH3)2-4-NO2, 4-nitro-4′-dimethylaminochalcone]
IC50 ([3]; Plasmodium falciparum): 93 µM

O=C(/C=C/c1ccc(F)cc1)c1ccc(C2CCCCC2)cc1 [4′-cC6H11-4-F, 4-fluoro-4′-cyclohexylchalcone]
IC50 [1, 4]: 27 ± 2 µM | IC50 [2, 5]: 74 ± 2 µM
